Publication PMC9116130 (Biochemical pharmacology, 2020)
Where a SMILES comes first, the peptide text is derived from it. Bridges are numbered along the chain shown (N, C = ends).

Tests used:
rNaV1.8 = rNaV1.8 (Rattus norvegicus, UniProt Q62968); experiment: Two-electrode voltage-clamp on Xenopus laevis oocytes expressing NaV1.8; conditions: for inhibition at 100 µM: read-out: Maximum % inhibition NaV1.8
rNaV1.2 = rNaV1.2 (Rattus norvegicus, UniProt P04775); experiment: Two-electrode voltage-clamp on Xenopus laevis oocytes expressing NaV1.2; conditions: for inhibition at 100 µM: read-out: Maximum % inhibition NaV1.2, peptide at 100 μM
mNaV1.6 = mNaV1.6 (Mus musculus, UniProt Q9WTU3); experiment: Two-electrode voltage-clamp on Xenopus laevis oocytes expressing NaV1.6; conditions: for inhibition at 100 µM: read-out: Maximum % inhibition NaV1.6, peptide at 100 μM
mNaV1.6, sequence (Q9WTU3 whole entry): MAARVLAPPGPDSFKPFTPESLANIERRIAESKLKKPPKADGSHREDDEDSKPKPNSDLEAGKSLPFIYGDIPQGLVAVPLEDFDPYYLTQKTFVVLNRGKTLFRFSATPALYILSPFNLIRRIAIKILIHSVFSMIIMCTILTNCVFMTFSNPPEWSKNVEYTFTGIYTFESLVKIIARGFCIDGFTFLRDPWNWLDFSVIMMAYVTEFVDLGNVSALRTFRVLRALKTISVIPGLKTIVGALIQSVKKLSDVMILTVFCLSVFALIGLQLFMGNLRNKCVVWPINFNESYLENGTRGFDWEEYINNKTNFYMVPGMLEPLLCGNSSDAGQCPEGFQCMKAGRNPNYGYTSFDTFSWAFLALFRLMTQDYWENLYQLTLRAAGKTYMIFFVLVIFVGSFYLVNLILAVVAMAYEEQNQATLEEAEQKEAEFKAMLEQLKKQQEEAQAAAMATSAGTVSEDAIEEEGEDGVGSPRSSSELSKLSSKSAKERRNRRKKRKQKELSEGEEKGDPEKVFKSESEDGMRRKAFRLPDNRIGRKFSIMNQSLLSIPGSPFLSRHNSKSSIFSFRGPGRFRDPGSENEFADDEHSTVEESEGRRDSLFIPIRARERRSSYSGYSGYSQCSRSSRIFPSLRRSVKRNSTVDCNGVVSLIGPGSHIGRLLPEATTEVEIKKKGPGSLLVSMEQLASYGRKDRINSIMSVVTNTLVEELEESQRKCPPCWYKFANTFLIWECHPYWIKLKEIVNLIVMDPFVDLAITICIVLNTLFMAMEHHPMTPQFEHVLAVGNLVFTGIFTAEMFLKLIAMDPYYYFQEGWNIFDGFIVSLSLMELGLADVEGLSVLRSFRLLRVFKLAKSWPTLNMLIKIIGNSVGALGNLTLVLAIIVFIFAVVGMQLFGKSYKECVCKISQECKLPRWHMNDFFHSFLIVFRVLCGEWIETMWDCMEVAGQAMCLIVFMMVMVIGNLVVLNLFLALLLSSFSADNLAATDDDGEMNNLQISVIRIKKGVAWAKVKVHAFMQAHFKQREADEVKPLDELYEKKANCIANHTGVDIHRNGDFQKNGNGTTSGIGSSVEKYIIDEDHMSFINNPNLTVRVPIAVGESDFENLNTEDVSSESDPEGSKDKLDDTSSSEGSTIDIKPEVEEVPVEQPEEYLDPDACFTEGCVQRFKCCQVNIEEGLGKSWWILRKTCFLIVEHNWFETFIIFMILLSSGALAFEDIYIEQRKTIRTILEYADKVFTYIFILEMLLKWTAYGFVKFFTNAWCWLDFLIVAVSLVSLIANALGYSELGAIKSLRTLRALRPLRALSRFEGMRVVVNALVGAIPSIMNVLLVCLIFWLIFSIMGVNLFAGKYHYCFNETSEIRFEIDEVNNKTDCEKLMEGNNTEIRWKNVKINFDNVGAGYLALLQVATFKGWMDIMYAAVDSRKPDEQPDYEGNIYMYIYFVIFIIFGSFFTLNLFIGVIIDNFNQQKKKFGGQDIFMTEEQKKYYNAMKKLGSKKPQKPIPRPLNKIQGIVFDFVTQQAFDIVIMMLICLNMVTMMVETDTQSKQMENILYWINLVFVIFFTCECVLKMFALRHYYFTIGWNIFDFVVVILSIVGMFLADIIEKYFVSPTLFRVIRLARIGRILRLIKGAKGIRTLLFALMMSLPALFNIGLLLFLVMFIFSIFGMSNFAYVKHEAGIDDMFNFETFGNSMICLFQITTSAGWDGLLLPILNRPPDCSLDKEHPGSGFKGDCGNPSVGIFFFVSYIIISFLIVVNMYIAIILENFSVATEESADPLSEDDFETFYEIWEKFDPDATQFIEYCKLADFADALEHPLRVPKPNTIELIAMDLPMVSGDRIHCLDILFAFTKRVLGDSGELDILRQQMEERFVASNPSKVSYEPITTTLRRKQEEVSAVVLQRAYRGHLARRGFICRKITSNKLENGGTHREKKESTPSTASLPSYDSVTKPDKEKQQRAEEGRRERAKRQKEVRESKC

hNaV1.5 = hNaV1.5 (Homo sapiens, UniProt Q14524); experiment: Two-electrode voltage-clamp on Xenopus laevis oocytes expressing NaV1.5; conditions: for inhibition at 100 µM: read-out: Maximum % inhibition NaV1.5
hNaV1.5, sequence (Q14524 whole entry): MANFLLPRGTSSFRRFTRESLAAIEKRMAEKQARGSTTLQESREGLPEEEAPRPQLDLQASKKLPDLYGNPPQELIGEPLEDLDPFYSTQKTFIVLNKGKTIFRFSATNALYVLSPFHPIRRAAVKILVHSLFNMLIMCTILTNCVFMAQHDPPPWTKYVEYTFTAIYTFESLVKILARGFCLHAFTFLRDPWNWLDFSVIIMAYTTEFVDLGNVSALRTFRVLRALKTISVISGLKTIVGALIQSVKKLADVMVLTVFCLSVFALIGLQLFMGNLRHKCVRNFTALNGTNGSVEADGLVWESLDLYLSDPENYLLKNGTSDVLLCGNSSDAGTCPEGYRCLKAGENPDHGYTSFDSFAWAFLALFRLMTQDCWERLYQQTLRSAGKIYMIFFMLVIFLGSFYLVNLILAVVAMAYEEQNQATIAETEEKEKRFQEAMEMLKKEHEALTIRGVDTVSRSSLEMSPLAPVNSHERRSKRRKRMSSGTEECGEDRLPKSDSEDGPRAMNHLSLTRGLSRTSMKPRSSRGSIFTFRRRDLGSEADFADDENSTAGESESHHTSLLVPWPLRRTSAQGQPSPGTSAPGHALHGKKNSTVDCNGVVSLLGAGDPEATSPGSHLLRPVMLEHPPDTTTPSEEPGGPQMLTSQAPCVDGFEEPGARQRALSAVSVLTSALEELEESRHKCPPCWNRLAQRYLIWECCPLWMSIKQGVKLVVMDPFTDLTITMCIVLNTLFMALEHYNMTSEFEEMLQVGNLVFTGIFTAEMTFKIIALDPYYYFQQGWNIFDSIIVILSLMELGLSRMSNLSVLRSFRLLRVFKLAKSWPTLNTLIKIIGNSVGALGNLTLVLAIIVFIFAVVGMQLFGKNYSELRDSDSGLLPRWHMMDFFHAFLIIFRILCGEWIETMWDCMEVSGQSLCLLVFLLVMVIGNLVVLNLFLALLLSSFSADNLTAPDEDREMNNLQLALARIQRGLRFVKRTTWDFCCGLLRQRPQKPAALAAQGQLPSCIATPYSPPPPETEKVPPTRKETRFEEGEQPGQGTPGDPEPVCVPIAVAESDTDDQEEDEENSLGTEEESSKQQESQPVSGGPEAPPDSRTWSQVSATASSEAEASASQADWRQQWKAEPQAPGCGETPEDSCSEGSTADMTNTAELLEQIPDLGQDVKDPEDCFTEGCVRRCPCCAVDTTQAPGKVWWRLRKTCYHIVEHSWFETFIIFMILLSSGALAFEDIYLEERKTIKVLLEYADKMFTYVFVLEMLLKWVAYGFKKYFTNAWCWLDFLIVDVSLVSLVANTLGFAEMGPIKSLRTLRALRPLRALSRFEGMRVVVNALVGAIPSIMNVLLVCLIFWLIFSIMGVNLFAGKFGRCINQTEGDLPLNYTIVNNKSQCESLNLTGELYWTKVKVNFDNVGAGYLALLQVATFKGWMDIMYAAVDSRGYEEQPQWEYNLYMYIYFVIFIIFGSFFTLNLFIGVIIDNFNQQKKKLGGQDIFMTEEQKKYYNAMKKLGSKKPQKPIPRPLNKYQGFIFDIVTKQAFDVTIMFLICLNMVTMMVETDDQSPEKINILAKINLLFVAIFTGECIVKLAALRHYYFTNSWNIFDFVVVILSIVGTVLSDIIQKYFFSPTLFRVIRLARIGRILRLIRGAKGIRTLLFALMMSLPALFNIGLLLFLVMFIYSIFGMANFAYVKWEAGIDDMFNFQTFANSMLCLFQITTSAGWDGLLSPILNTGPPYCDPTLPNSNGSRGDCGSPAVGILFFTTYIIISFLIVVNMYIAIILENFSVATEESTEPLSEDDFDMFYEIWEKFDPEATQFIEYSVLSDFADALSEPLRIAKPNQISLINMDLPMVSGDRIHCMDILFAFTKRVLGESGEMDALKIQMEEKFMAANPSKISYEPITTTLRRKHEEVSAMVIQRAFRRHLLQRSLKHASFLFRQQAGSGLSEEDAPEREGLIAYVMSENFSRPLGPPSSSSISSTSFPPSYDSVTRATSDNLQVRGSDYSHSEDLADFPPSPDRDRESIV

rNaV1.4 = rNaV1.4 (Rattus norvegicus, UniProt P15390); experiment: Two-electrode voltage-clamp on Xenopus laevis oocytes expressing NaV1.4; conditions: for inhibition at 100 µM: read-out: Maximum % inhibition NaV1.4, peptide at 100 μM; for Maximum % inhibition NaV1.4: peptide at 100 μM, 100 µM

## CC(=O)N[C@H]1CSSC[C@@H](C(=O)O)NC(=O)[C@H](CCCNC(=N)N)NC(=O)[C@H](CC(N)=O)NC(=O)[C@H](Cc2c[nH]c3ccccc23)NC(=O)[C@H](CCCNC(=N)N)NC(=O)[C@H](C)NC(=O)[C@H](Cc2c[nH]c3ccccc23)NC(=O)[C@H](CCCNC(=N)N)NC(=O)[C@H](CCCNC(=N)N)NC1=O [PnCS1Ac, Ac-CRRWARWNRC] (Ac-CRRWARWNRC-OH; disulfide 1-10)
rNaV1.8
  inhibition at 100 µM: 0%
rNaV1.2
  inhibition at 100 µM: 0%
mNaV1.6
  inhibition at 100 µM: 0%
hNaV1.5
  inhibition at 100 µM: 0%
rNaV1.4
  inhibition at 100 µM: 0%

## CC(=O)N[C@H]1CSSC[C@@H](C(N)=O)NC(=O)[C@H](CCCNC(=N)N)NC(=O)[C@H](CC(N)=O)NC(=O)[C@H](Cc2c[nH]c3ccccc23)NC(=O)[C@H](CCCNC(=N)N)NC(=O)[C@H](C)NC(=O)[C@H](Cc2c[nH]c3ccccc23)NC(=O)[C@H](CCCNC(=N)N)NC(=O)[C@H](CCCNC(=N)N)NC1=O [PnCS1AcAm, Ac-CRRWARWNRC ^*] (Ac-CRRWARWNRC-NH2; disulfide 1-10)
rNaV1.8
  IC50: > 100 µM
  inhibition at 100 µM: 0%
rNaV1.2
  IC50: > 100 µM
  inhibition at 100 µM: 0%
mNaV1.6
  IC50: > 100 µM
  inhibition at 100 µM: 0%
hNaV1.5
  IC50: > 100 µM
  inhibition at 100 µM: 0%
rNaV1.4
  IC50: > 100 µM
  inhibition at 100 µM: 0%

## C[C@@H]1NC(=O)[C@H](Cc2c[nH]c3ccccc23)NC(=O)[C@H](CCCNC(=N)N)NC(=O)[C@H](CCCNC(=N)N)NC(=O)[C@@H](N)CSSC[C@@H](C(=O)O)NC(=O)[C@H](CCCNC(=N)N)NC(=O)[C@H](CC(N)=O)NC(=O)[C@H](Cc2c[nH]c3ccccc23)NC(=O)[C@H](CCCNC(=N)N)NC1=O [PnCS1DeAm, CRRWARWNRC] (H-CRRWARWNRC-OH; disulfide 1-10)
rNaV1.8
  IC50: > 100 µM
  inhibition at 100 µM: 0%
rNaV1.2
  IC50: > 100 µM
  inhibition at 100 µM: 34%
mNaV1.6
  IC50: > 100 µM
  inhibition at 100 µM: 24%
hNaV1.5
  IC50: > 100 µM
  inhibition at 100 µM: 10%
rNaV1.4
  IC50: > 100 µM
  inhibition at 100 µM: 43%

## N=C(N)NCCC[C@@H]1NC(=O)[C@H](CC(N)=O)NC(=O)[C@H](Cc2c[nH]c3ccccc23)NC(=O)[C@H](CCCNC(=N)N)NC(=O)[C@H](CCC(=O)O)NC(=O)[C@H](Cc2c[nH]c3ccccc23)NC(=O)[C@H](CCCNC(=N)N)NC(=O)[C@H](CCCNC(=N)N)NC(=O)[C@@H](N)CSSC[C@@H](C(N)=O)NC1=O [PnCS1[A5E], CRRWERWNRC ^*] (H-CRRWERWNRC-NH2; disulfide 1-10)
rNaV1.8
  IC50: > 100 µM
  inhibition at 100 µM: 0%
rNaV1.2
  IC50: 1.4 ± 0.2 µM
  inhibition at 100 µM: 81%
mNaV1.6
  IC50: 1.8 ± 0.5 µM
  inhibition at 100 µM: 82%
hNaV1.5
  IC50: 8.8 ± 3.7 µM
  inhibition at 100 µM: 73%
rNaV1.4
  IC50: > 100 µM
  inhibition at 100 µM: 35%

## N=C(N)NCCC[C@@H]1NC(=O)[C@H](CC(N)=O)NC(=O)[C@H](Cc2c[nH]c3ccccc23)NC(=O)[C@H](CCCNC(=N)N)NC(=O)[C@H](CCCCN)NC(=O)[C@H](Cc2c[nH]c3ccccc23)NC(=O)[C@H](CCCNC(=N)N)NC(=O)[C@H](CCCNC(=N)N)NC(=O)[C@@H](N)CSSC[C@@H](C(N)=O)NC1=O [PnCS1[A5K], CRRWKRWNRC ^*] (H-CRRWKRWNRC-NH2; disulfide 1-10)
rNaV1.8
  IC50: > 100 µM
  inhibition at 100 µM: 0%
rNaV1.2
  IC50: 1.2 ± 0.4 µM
  inhibition at 100 µM: 84%
mNaV1.6
  IC50: 0.7 ± 0.3 µM
  inhibition at 100 µM: 93%
hNaV1.5
  IC50: 2.1 ± 0.2 µM
  inhibition at 100 µM: 92%
rNaV1.4
  IC50: 1.9 ± 0.8 µM
  inhibition at 100 µM: 91%

## C[C@@H]1NC(=O)[C@H](Cc2c[nH]c3ccccc23)NC(=O)[C@H](CCCNC(=N)N)NC(=O)[C@H](C)NC(=O)[C@H](Cc2c[nH]c3ccccc23)NC(=O)[C@H](CCCNC(=N)N)NC(=O)[C@H](CCCNC(=N)N)NC(=O)[C@@H](N)CSSC[C@@H](C(N)=O)NC(=O)[C@H](CCCNC(=N)N)NC1=O [PnCS1[N8A], CRRWARWARC ^*] (H-CRRWARWARC-NH2; disulfide 1-10)
rNaV1.8
  IC50: > 100 µM
  inhibition at 100 µM: 0%
rNaV1.2
  IC50: 0.9 ± 0.3 µM
  inhibition at 100 µM: > 95%
rNaV1.2; peptide at 100 μM, 100 µM
  Maximum % inhibition NaV1.2: 96%
mNaV1.6
  IC50: 0.8 ± 0.3 µM
  inhibition at 100 µM: 89%
hNaV1.5
  IC50: 2.2 ± 0.7 µM
  inhibition at 100 µM: 92%
rNaV1.4
  IC50: 0.9 ± 0.4 µM
  inhibition at 100 µM: 94%

## C[C@@H]1NC(=O)[C@H](Cc2c[nH]c3ccccc23)NC(=O)[C@H](CCCNC(=N)N)NC(=O)[C@H](CCCNC(=N)N)NC(=O)[C@@H](N)CSSC[C@@H](C(N)=O)NC(=O)[C@H](CCCNC(=N)N)NC(=O)[C@H](CCC(=O)O)NC(=O)[C@H](Cc2c[nH]c3ccccc23)NC(=O)[C@H](CCCNC(=N)N)NC1=O [PnCS1[N8E], CRRWARWERC ^*] (H-CRRWARWERC-NH2; disulfide 1-10)
rNaV1.8
  IC50: > 100 µM
  inhibition at 100 µM: 0%
rNaV1.2
  IC50: > 100 µM
  inhibition at 100 µM: 47%
mNaV1.6
  IC50: > 100 µM
  inhibition at 100 µM: 27%
hNaV1.5
  IC50: > 100 µM
  inhibition at 100 µM: 44%
rNaV1.4
  IC50: > 100 µM
  inhibition at 100 µM: 53%

## C[C@@H]1NC(=O)[C@H](Cc2c[nH]c3ccccc23)NC(=O)[C@H](CCCNC(=N)N)NC(=O)[C@H](CCCNC(=N)N)NC(=O)[C@@H](N)CSSC[C@@H](C(N)=O)NC(=O)[C@H](CCCNC(=N)N)NC(=O)[C@H](CCCCN)NC(=O)[C@H](Cc2c[nH]c3ccccc23)NC(=O)[C@H](CCCNC(=N)N)NC1=O [PnCS1[N8K], CRRWARWKRC ^*] (H-CRRWARWKRC-NH2; disulfide 1-10)
rNaV1.8
  IC50: > 100 µM
  inhibition at 100 µM: 0%
rNaV1.2
  IC50: 4.4 ± 0.8 µM
  inhibition at 100 µM: 81%
mNaV1.6
  IC50: 0.5 ± 0.2 µM
  inhibition at 100 µM: 92%
hNaV1.5
  IC50: 2.8 ± 0.5 µM
  inhibition at 100 µM: 86%
rNaV1.4
  IC50: 0.9 ± 0.3 µM
  Maximum % inhibition NaV1.4: 96%
  inhibition at 100 µM: > 95%

## C[C@@H]1NC(=O)[C@H](Cc2c[nH]c3ccccc23)NC(=O)[C@H](CCCNC(=N)N)NC(=O)[C@H](C)NC(=O)[C@@H](N)CSSC[C@@H](C(N)=O)NC(=O)[C@H](CCCNC(=N)N)NC(=O)[C@H](CC(N)=O)NC(=O)[C@H](Cc2c[nH]c3ccccc23)NC(=O)[C@H](CCCNC(=N)N)NC1=O [PnCS1[R2A], CARWARWNRC ^*] (H-CARWARWNRC-NH2; disulfide 1-10)
rNaV1.8
  IC50: > 100 µM
  inhibition at 100 µM: 0%
rNaV1.2
  IC50: 2.9 ± 0.5 µM
  inhibition at 100 µM: 84%
mNaV1.6
  IC50: 1.6 ± 0.5 µM
  inhibition at 100 µM: 71%
hNaV1.5
  IC50: 1.7 ± 0.7 µM
  inhibition at 100 µM: 68%
rNaV1.4
  IC50: 1.4 ± 0.4 µM
  Maximum % inhibition NaV1.4: 96%
  inhibition at 100 µM: > 95%

## C[C@@H]1NC(=O)[C@H](Cc2c[nH]c3ccccc23)NC(=O)[C@H](CCCNC(=N)N)NC(=O)[C@H](CCC(=O)O)NC(=O)[C@@H](N)CSSC[C@@H](C(N)=O)NC(=O)[C@H](CCCNC(=N)N)NC(=O)[C@H](CC(N)=O)NC(=O)[C@H](Cc2c[nH]c3ccccc23)NC(=O)[C@H](CCCNC(=N)N)NC1=O [PnCS1[R2E], CERWARWNRC ^*] (H-CERWARWNRC-NH2; disulfide 1-10)
rNaV1.8
  IC50: > 100 µM
  inhibition at 100 µM: 0%
rNaV1.2
  IC50: > 100 µM
  inhibition at 100 µM: 41%
mNaV1.6
  IC50: > 100 µM
  inhibition at 100 µM: 5%
hNaV1.5
  IC50: > 100 µM
  inhibition at 100 µM: 27%
rNaV1.4
  IC50: > 100 µM
  inhibition at 100 µM: 11%

## C[C@@H]1NC(=O)[C@H](Cc2c[nH]c3ccccc23)NC(=O)[C@H](CCCNC(=N)N)NC(=O)[C@H](CCCCN)NC(=O)[C@@H](N)CSSC[C@@H](C(N)=O)NC(=O)[C@H](CCCNC(=N)N)NC(=O)[C@H](CC(N)=O)NC(=O)[C@H](Cc2c[nH]c3ccccc23)NC(=O)[C@H](CCCNC(=N)N)NC1=O [PnCS1[R2K], CKRWARWNRC ^*] (H-CKRWARWNRC-NH2; disulfide 1-10)
rNaV1.8
  IC50: > 100 µM
  inhibition at 100 µM: 0%
rNaV1.2
  IC50: 1.1 ± 0.5 µM
  inhibition at 100 µM: 92%
mNaV1.6
  IC50: 0.6 ± 0.2 µM
  inhibition at 100 µM: 85%
hNaV1.5
  IC50: 2.5 ± 0.5 µM
  inhibition at 100 µM: 82%
rNaV1.4
  IC50: 0.8 ± 0.3 µM
  inhibition at 100 µM: 93%

## C[C@@H]1NC(=O)[C@H](Cc2c[nH]c3ccccc23)NC(=O)[C@H](C)NC(=O)[C@H](CCCNC(=N)N)NC(=O)[C@@H](N)CSSC[C@@H](C(N)=O)NC(=O)[C@H](CCCNC(=N)N)NC(=O)[C@H](CC(N)=O)NC(=O)[C@H](Cc2c[nH]c3ccccc23)NC(=O)[C@H](CCCNC(=N)N)NC1=O [PnCS1[R3A], CRAWARWNRC ^*] (H-CRAWARWNRC-NH2; disulfide 1-10)
rNaV1.8
  IC50: > 100 µM
  inhibition at 100 µM: 0%
rNaV1.2
  IC50: 1.8 ± 0.3 µM
  inhibition at 100 µM: 86%
mNaV1.6
  IC50: 1.9 ± 0.4 µM
  inhibition at 100 µM: 87%
hNaV1.5
  IC50: > 100 µM
  inhibition at 100 µM: 51%
rNaV1.4
  IC50: 1.6 ± 0.5 µM
  inhibition at 100 µM: 89%

## C[C@@H]1NC(=O)[C@H](Cc2c[nH]c3ccccc23)NC(=O)[C@H](CCC(=O)O)NC(=O)[C@H](CCCNC(=N)N)NC(=O)[C@@H](N)CSSC[C@@H](C(N)=O)NC(=O)[C@H](CCCNC(=N)N)NC(=O)[C@H](CC(N)=O)NC(=O)[C@H](Cc2c[nH]c3ccccc23)NC(=O)[C@H](CCCNC(=N)N)NC1=O [PnCS1[R3E], CREWARWNRC ^*] (H-CREWARWNRC-NH2; disulfide 1-10)
rNaV1.8
  IC50: > 100 µM
  inhibition at 100 µM: 0%
rNaV1.2
  IC50: > 100 µM
  inhibition at 100 µM: 52%
mNaV1.6
  IC50: > 100 µM
  inhibition at 100 µM: 24%
hNaV1.5
  IC50: > 100 µM
  inhibition at 100 µM: 21%
rNaV1.4
  IC50: > 100 µM
  inhibition at 100 µM: 36%
